The source of these data is patent US6649609B2, “Benzimidazole derivatives and pharmaceutical compositions comprising these compounds” (Neurosearch A/S, priority 1999, dated 2003).

Structures can show the parent of a compound that is named as a salt.

Series [1] concerns the target benzodiazepine receptor (GABAA receptor complex), cerebral cortex membranes. In words: In vitro inhibition of 3H-flunitrazepam (3H-FNM) binding. Conditions: inhibition of specific 3H-FNM (1 nM) binding, rat cerebral cortex membranes. As to the method:
The GABA recognition site and the benzodiazepine modulatory unit can selectively be labelled with ^3H-muscimol and ^3H-flunitrazepam, respectively.
13A: In vitro inhibition of ^3H-flunitrazepam (^3H-FNM) binding
Preparations are performed at 0-4° C. unless otherwise indicated. Cerebral cortex from male Wistar rats (150-200 g) is homogenised for 5-10 sec in 20 ml Tris-HCl (30 mM, pH 7.4) using an Ultra-Turrax homogeniser. The suspension is centrifuged at 27,000× g for 15 min and the pellet is washed three times with buffer (centrifuged at 27,000× g for 10 min). The washed pellet is homogenized in 20 ml of buffer and incubated on a water bath (37° C.) for 30 min to remove endogenous GABA and then centrifuged for 10 min at 27,000× g. The pellet is then homogenized in buffer and centrifuged for 10 min at 27,000× g. The final pellet is resuspended in 30 ml buffer and the preparation is frozen and stored at −20° C.
The membrane preparation is thawed and centrifuged at 2° C. for 10 min at 27,000× g. The pellet is washed twice with 20 ml 50 mM Tris-citrate, pH 7.1 using an Ultra-Turrax homogeniser and centrifuged for 10 min at 27,000× g. The final pellet is resuspended in 50 mM Tris-citrate, pH 7.1 (500 ml buffer per g of original tissue), and then used for binding assays. Aliquots of 0.5 ml tissue are added to 25 μl of test solution and 25 μl of ^3H-FNM (1 nM, final concentration), mixed and incubated for 40 min at 2° C., Non-specific binding is determined using Clonazepam (1 μM, final concentration). After incubation the samples are added 5 ml of ice-cold buffer and poured directly onto Whatman GFIC glass fibre filters under suction and immediately washed with 5 ml ice-cold buffer. The amount of radioactivity on the filters is determined by conventional liquid scintillation counting. Specific binding is total binding minus non-specific binding.
The test value will be given as IC50 (the concentration (μM) of the test substance which inhibits the specific binding of ^3H-FNM by 50%). [formula]
Co is specific binding in control assays, and
Cx is the specific binding in the test assay.
(The calculations assume normal mass-action kinetics).

The subject of series [2] is GABAA receptor-ion channel complex (forebrain). In words: In vivo inhibition of 3H-FNM binding. Conditions: female NMRI mice, test substance i.v., inhibition of specific [3H]FNM binding in forebrain. Also noted: species or system mouse. As to the method:
13B: In vivo inhibition of ^3H-FNM binding
[^3H]FNM can also be used for in vivo receptor labelling studies in mouse. Accumulation of [^3H]FNM binding will occur all over the brain as GABAA receptors are widely distributed.
All test substances used are solutions prepared in 10% TWEEN 80. Groups of three female NMRI mice (25 g) are injected i.v. via the tail vein with 5.0 μCi of [3H]FNM in 0.2 ml saline. Fifteen min after injection with [^3H]FNM the test substance is administered i.v. Twenty min after injection with [^3H]FNM, mice are killed by decapitation, the forebrains rapidly excised and homogenized in 12 ml of ice-cold 50 mM Tris-citrate, pH 7.1 using an Ultra-Turrax homogenizer. Three aliquots of 1 ml are immediately filtered through GF/C glass fibre filters and washed with 2×5 ml of ice-cold buffer. The amounts of radioactivity on the filters and in 200 μl of the homogenate are determined by conventional scintillation counting. Groups of untreated mice serves as controls. To determine non-specific binding groups of mice are injected with Clonazepam (25 mg/kg) i.p. 10 min before [3H]FNM injection. Specific binding is the amount of binding in controls minus the amount of binding in Clonazepam treated mice.
The ED50 value is determined from dose response curves. […] [formula]
where Co is specific binding in controls and Cx is the specific binding in mice treated with test substance.

Series [3] has as its system clonic convulsions induced by pentylenetetrazol (PTZ). Kind of series: PTZ clonic convulsions. The format is in vivo. Conditions: female NMRI mice; for ED100: i.v., dose increasing the PTZ threshold to 100 mg PTZ/kg (linear regression); for ptz threshold at 30 mg/kg: test substance 30 mg/kg i.v., PTZ infused after 5 min, vehicle threshold 37-39 mg PTZ/kg. As to the method:
The purpose of this test is to show antagonism of clonic convulsions induced by pentylenetetrazol (PTZ). PTZ induces clonic convulsions in mice after i.v. infusion. Antagonism of PTZ-induced convulsions is a measure for the agonistic character of ligands for the benzodiazepine recognition site.
Female NMRI mice (Bomholdtgaard, Ry), 20 g, 6 mice in each group are administered i.v. with vehicle or test substance. After five minutes the PTZ-solution is infused intravenously at a speed of 0.7 ml/minute through a cannula placed in the tail vein. The time from initiation of the infusion to appearance of clonic convulsions is recorded.
The dose of PTZ required for inducing convulsion in each mouse is calculated as PTZ/kg body weight. Means ±sd for each experimental group of 6 mice is calculated. ED100 is calculated by linear regression expressing the dose increasing the PTZ threshold to 100 mg PTZ/kg.
The threshold of vehicle treated controls is in the range of 37-39 mg PTZ/kg. As a control in each series of experiments PTZ is infused into 6 vehicle treated mice.

What is called melting point is the temperature, or range, at which the solid turns liquid. In the case of `O=C(OCCO)c1ccc2c(c1)ncn2-c1cccc(N2CCN(CCO)CC2)c1` (as salt: HCl), the melting point fell in the range of 182 to 192 °C.

In the case of `COCCOC(=O)c1ccc2c(c1)ncn2-c1cccc(N2CCN(Cc3ccc(Cl)s3)CC2)c1` (as salt: HCl), the melting point lay in the range of 185 to 186 °C.

With `CCN(CC)C(=O)CN1CCN(c2cccc(-n3cnc4cc(C(=O)OCCOC)ccc43)c2)CC1` (as salt: HCl), the melting point is 202 to 204 °C.

Turning to `CCOC(=O)N1CCN(Cc2cccc(-n3cnc4cc(-c5ccoc5)ccc43)c2)CC1` (as salt: HCl), the melting point lay in the range of 248 to 250 °C.

For the compound `CC(=O)N1CCN(CCOC(=O)c2cccc(-n3cnc4cc(-c5ccoc5)ccc43)c2)CC1` (as salt: HCl) [Compound 7j, 2-(1-Acetyl-4-piperazinyl)-ethyl 3-(5-(3-furanyl)-1-benzimidazolyl)-benzoate], the melting point was in the range of 167 to 168 °C.

Take `COCCOC(=O)c1ccc2c(c1)ncn2-c1cccc(N2CCN(CCOCc3ccccc3)CC2)c1` (as salt: HCl): the melting point was in the range of 139 to 141 °C.

For `COCCOC(=O)c1ccc2c(c1)ncn2-c1cccc(N2CCN(CC(=O)OC)CC2)c1` (as salt: HCl), the melting point was in the range of 161 to 164 °C.

On to `CCN1CCN(c2cccc(-n3cnc4cc(C(=O)OCCOC)ccc43)c2)CC1` (as salt: HCl), for which the melting point lay in the range of 166 to 168 °C.

In turn, `CCOC(=O)CN1CCN(c2cccc(-n3cnc4cc(C(=O)OCCOC)ccc43)c2)CC1` (as salt: HCl) [Compound 1b, 2-Methoxyethyl 1-(3-(4-(ethoxy-carbonyl-methyl)-1-piperazinyl)-phenyl)-benzimidazole-5-carboxylate] showed a melting point of 161 to 163 °C.

Consider `CN1CCCC1COC(=O)c1cccc(-n2cnc3cc(-c4ccoc4)ccc32)c1` (stereo not drawn) (as salt: HCl), for which the melting point is 198 to 200 °C.

`CCN1C(C)CN(c2cccc(-n3cnc4cc(C(=O)OCCOC)ccc43)c2)CC1C` (stereo not drawn) (as salt: HCl) registered a melting point of 202 to 208 °C.

The term IC50 denotes the point on the concentration scale where inhibition reaches its midpoint. Read a low IC50 as inhibition by little substance. In series [1], `CCOC(=O)CN1CCN(Cc2cccc(-n3cnc4cc(-c5ccoc5)ccc43)c2)CC1` [Compound 7f, 5-(3-Furanyl)-1-(3-(1-ethoxycarbonylmethyl-4-piperazinylmethyl)-phenyl)-benzimidazole] gave a 50% inhibitory concentration (IC50) of 0.6 nM. For the same compound, the “In vivo binding ED50” value in series [2] was 0.17 mg/kg. For the same compound, in series [3], the ED100 is given as 2.7 mg/kg and the “ptz threshold at 30 mg/kg” value is on record as 120 mg/kg.

`NC(=O)CN1CCN(c2cccc(-n3cnc4cc(C(=O)OCCO)ccc43)c2)CC1` (as salt: HCl) registered a melting point of 268 to 270 °C.

In turn, `COCCOC(=O)c1ccc2c(c1)ncn2-c1cccc(N2CCN(CC#N)CC2)c1` registered a melting point of 91 to 93 °C.

Turning to `COCCOC(=O)c1ccc2c(c1)ncn2-c1cccc(N2CCN(CC(N)=O)CC2)c1` (as salt: HCl), the melting point is 211 to 212 °C.

Turning to `COCCOC(=O)c1ccc2c(c1)ncn2-c1cccc(C2CCN(C(C)=O)CC2)c1` (as salt: HCl), the melting point lay within 139 to 140 °C.

In the case of `COCCOC(=O)c1ccc2c(c1)ncn2-c1cccc(N2CCN(CC(=O)OC(C)(C)C)CC2)c1` (as salt: HCl), the melting point was 218 to 224 °C.

Turning to `COCCOC(=O)c1ccc2c(c1)ncn2-c1cccc(N2CCNCC2)c1` (as salt: HCl), the melting point fell in the range of 191 to 205 °C.

For `COCCOC(=O)c1ccc2c(c1)ncn2-c1cccc(N2CCN(Cc3ccccc3)CC2)c1` (as salt: HCl), the melting point is 172 to 177 °C.

Compound `COC(=O)c1ccc2c(c1)ncn2-c1cccc(N2CCN(Cc3ccccc3)CC2)c1` (as salt: HCl) yielded a melting point of 153 to 163 °C.

Take `COCCOC(=O)c1ccc2c(c1)ncn2-c1cccc(N2CCN(CC(=O)OC(C)C)CC2)c1` (as salt: HCl): the melting point was 155 to 159 °C.

For `CSCCOC(=O)c1ccc2c(c1)ncn2-c1cccc(N2CCN(C)CC2)c1`, the melting point lay within 121 to 122 °C.

`CN1CCN(c2cccc(-n3cnc4cc(C(=O)OCCO)ccc43)c2)CC1` (as salt: HCl) gave a melting point of 128 to 139 °C.

The compound `CCOC(=O)CN1C(C)CN(c2cccc(-n3cnc4cc(C(=O)OCCOC)ccc43)c2)CC1C` (stereo not drawn) (as salt: HCl) registered a melting point of 90 to 94 °C.

In series [1], `COC(=O)c1ccc2c(c1)ncn2-c1cccc(Cn2ccnc2)c1` [Compound 1l, Methyl 1-(3-(1-imidazolylmethyl)-phenyl)-benzimidazole-5-carboxylate] registered an IC50 of 12 nM. In addition, in series [2], the “In vivo binding ED50” value is recorded as 0.75 mg/kg. Also, in series [3], the ED100 was determined as 17 mg/kg and the “ptz threshold at 30 mg/kg” value turned out to be 120 mg/kg.

Consider `COCCOC(=O)c1ccc2c(c1)ncn2-c1cccc(C2CCN(C)CC2)c1` (as salt: HCl), for which the melting point lay within 123 to 125 °C.

The compound `CCN(CC)C(=O)CN1CCN(c2cccc(-n3cnc4cc(C(=O)OCCO)ccc43)c2)CC1` (as salt: HCl) came in with a melting point of 149 to 154 °C.

The compound `COC(=O)c1ccc2c(c1)ncn2-c1cccc(N2CCN(CC(=O)O)CC2)c1` (as salt: HCl) showed a melting point of 210 to 220 °C.

In the case of `CN(C)CCOC(=O)c1ccc2c(c1)ncn2-c1cccc(N2CCN(CC(=O)O)CC2)c1`, the melting point is 47 °C (dec.).

In the case of `COCCOC(=O)c1ccc2c(c1)ncn2-c1cccc(N2CCN(Cc3nnnn3C)CC2)c1` (as salt: HCl), the melting point is 196 to 198 °C.

`CCN1CC=C(c2cccc(-n3cnc4cc(C(=O)OCCOC)ccc43)c2)CC1` (as salt: HCl) showed a melting point of 179 to 180 °C.

`COC(=O)c1ccc2c(c1)ncn2-c1cccc(N2CCN(CC#N)CC2)c1` yielded a melting point of 160 to 162 °C.

Consider `COCCOC(=O)c1ccc2c(c1)ncn2-c1cccc(N2CCN(CC(=O)O)CC2)c1`, for which the melting point was in the range of 105 to 110 °C.

In the case of `COCCOC(=O)c1ccc2c(c1)ncn2-c1cccc(-n2cnc(C(=O)OC)c2)c1` (as salt: HCl), the melting point lay in the range of 132 to 134 °C.

In turn, `COC(=O)CN1CCN(c2cccc(-n3cnc4cc(C(=O)OCCO)ccc43)c2)CC1` (as salt: HCl) gave a melting point of 150 to 155 °C.

The compound `CCOC(=O)CN1CCN(c2cccc(-n3cnc4cc(C(=O)OCCO)ccc43)c2)CC1` (as salt: HCl) displayed a melting point of 103 to 125 °C.

In the case of `COCCOC(=O)c1ccc2c(c1)ncn2-c1cccc(N2CCN(C)CC2)c1` (as salt: maleate), the melting point lay in the range of 136 to 137 °C.

Compound `CC(C)(C)OC(=O)CN1CCN(c2cccc(-n3cnc4cc(-c5ccoc5)ccc43)c2)CC1` showed a melting point of 131 to 132 °C.

For `COC(=O)c1ccc2c(c1)ncn2-c1cccc(N2CCNCC2)c1` (as salt: HCl), the melting point was in the range of 179 to 202 °C.
